Test results reported in patent US9012647B2, “Nitroxide modified non-steroidal anti-inflammatory compounds and uses thereof in the treatment and prevention of diseases or disorders” (The United States of America, as Represented by the …, priority 2011, dated 2015).
Where two headings read alike, the source gives them in different places.

Key:
[1] = Maximum tolerated dose, IP injection; type: in vivo; settings: nude mice, monitored up to 24 h, death as end point; for MTD at 24 h: female, athymic nude, mouse, in vivo
Method: All animal experiments were carried out in compliance with the Guide for the Care and Use of Laboratory Animal Resources (National Research Council, 1996) and were approved by the National Cancer Institute Animal Care and Use Committee. Female athymic nude mice were supplied at 6 weeks of age by the Frederick Cancer Research Center and were housed five per cage in a climate-controlled environment. […] Each animal was weighed individually on the same day as the intraperitoneal (IP) injection. Different dosages were used to determine the maximum tolerated dose to be given to the animals. Each animal was monitored for up to 24 h and death was the end point of the experiment.

LTB4 formation = assay: Leukotriene B4 ELISA in A549 cells; type: cell-based; settings: for LTB4 % of control / LTB4 / activity at 10 µg/mL / activity at 100 µg/mL: Table 2B; for LTB4 % of control / activity at 10 µg/mL / activity at 100 µg/mL: control 100 ± 1 pg ml^−1; for LTB4: control 100 ± 1, mean ± S.D., n=3; for inhibition of LTB4 formation: at 10 μg ml^−1 or 100 μg ml^−1; for activity at 10 µg/mL / activity at 100 µg/mL: Homo sapiens, A549
Method: The A549 cell line was grown in Dulbecco's Modified Eagle Medium (DMEM) also supplemented with 10% heat inactivated fetal bovine serum and penicillin-streptomycin. […] The media was changed twice a week.
PGE2 was measured by enzyme enzyme-linked immunosorbent assay (ELISA) (Cayman Chemical, Ann Arbor, Mich.). (1) or (2) was dissolved in DMSO at a concentration of 10 mg ml^−1 for the in vitro experiments. A549 cells in 24 well plates were treated with the compound for 30 min., then arachidonic acid (20 μg ml^−1) was added at 37° C. for 5 min. The samples were frozen at −80° C. until assayed for PGE2. A 100 μl sample was added to EIA buffer (900 μl). Diluted sample (25 μl) was then added to a 96 well plate. The samples were incubated overnight at 4° C. The plate was then washed 5 times ([…]) and […] was added. The absorbance at 450 nm was determined in an ELISA reader. Tables 1A-1B show the mean value±S.D. of 3 determinations. Percents were obtained using the formula: %: sample pg/ml/control pg/ml×100.
Several recent modified NSAIDs target both prostaglandin as well as leukotriene (Martel-Pelletier et al., Ann. Rheum. Dis., 62:501-09 (2003)). Since nitroxides inhibit lipoxygenase (Rachmilewitz et al., Gut, 35: 1181-88 (1994)), the inhibition of LTB4 in A549 cells by these compounds was evaluated. Leukotriene B4 from A549 cells treated as described above was examined using an ELISA assay kit (Cayman Chemical, Ann Arbor, Mich.; Cat No. 520111) according to the manufacturer's instructions. Tables 2A-2B show the mean value±S.D. of 3 determinations. Percents were obtained using the formula: %: sample pg/ml/control pg/ml×100.

PGE2 production = assay: PGE2 ELISA in A549 cells stimulated with arachidonic acid; type: cell-based; settings: Table 1B; for PGE-2 % of control / activity at 10 µg/mL / activity at 100 µg/mL: control 42 ± 3 pg ml^−1; for PGE-2: control 42 ± 3, mean ± S.D., n=3; for activity at 10 µg/mL / activity at 100 µg/mL: Homo sapiens, A549, read-out: PGE-2 % of control
Method: PGE2 was measured by enzyme enzyme-linked immunosorbent assay (ELISA) (Cayman Chemical, Ann Arbor, Mich.). […] A549 cells in 24 well plates were treated with the compound for 30 min., then arachidonic acid (20 μg ml^−1) was added at 37° C. for 5 min. The samples were frozen at −80° C. until assayed for PGE2. A 100 μl sample was added to EIA buffer (900 μl). Diluted sample (25 μl) was then added to a 96 well plate. The samples were incubated overnight at 4° C. The plate was then washed 5 times (200 μA) and Edman's reagent was added. The absorbance at 450 nm was determined in an ELISA reader. […] Percents were obtained using the formula: %: sample pg/ml/control pg/ml×100.

[2] = Krishna et al. 1992, cited from earlier work; for oxidation potential Eox: vs. NHE
[3] = Superoxide scavenging: ferricytochrome c reduction, hypoxanthine/xanthine oxidase; type: biochemical; settings: PBS pH 7.4, 25° C., cyt c 60 μM; read-out: IC50, reduction rate of ferricytochrome c (superoxide scavenging)
Method: Superoxide was generated from the reaction of hypoxanthine (500 μM) with xanthine oxidase (10 mU) in PBS (pH 7.4, 25° C.) containing the metal chelator diethylenetriaminepentaacetic acid (DTPA, 50 μM). The rate of superoxide formation was assessed by ferricytochrome c (cyt c) (60 μM) reduction (550 nm, ε=21,000 M^−1 cm^−1), as previously described (Wasserman et al., Biochim. Biophys. Acta, 623: 457-60 (1980)). Different drug doses (5-100 μM) were used to scavenge superoxide by the modified nitroxide-NSAIDs.

[4] = previous reports at pH 7.4; cited from earlier work
[5] = Cyclic voltammetry (oxidation potential); type: physicochemical
Method: Nitroxides undergo one electron reduction and oxidation, which provides their antioxidant characteristics. Cyclic Voltammetry (CV) measurements of the nitroxide-NSAIDs were taken with an EG Potensiostat/Galvanostat Model 273A, from AMETEK Princeton Applied Research (Oak Ridge, Tenn.). Measurements were performed at room temperature in PBS or 50% organic solvents, using the platinum auxiliary electrode and Ag/AgCl (saturated KCl) reference electrode.

[6] = Hahn et al. 1992; cited from earlier work
[7] = Carrageenan-induced foot paw edema model; type: in vivo; settings: dose decreasing the inflammatory response by 50%, n = 4
Method: The in vivo anti-inflammatory activity was evaluated using the carrageenan-induced foot paw edema model reported previously (Winter et al. Proc. Soc. Exp. Biol. Med., 111: 544-47 (1962)).

In the case of `CC1(C)CCCC(C)(C)N1[O]` [TEMPO, 2,2,6,6-Tetramethyl-1-piperidinyloxy], the “Maximum Tolerated Dose (MTD)” value [1] is reported as 140 mg/kg, the “LTB4 % of control” value (LTB4 formation; dose 10 μg ml^−1) is reported as 100% and the LTB4 (LTB4 formation; dose 10 μg ml^−1) is reported as “(100 ± 2) pg ml^−1”. For the same compound, the “LTB4 % of control” value (LTB4 formation; dose 100 μg ml^−1) was 100%, the LTB4 (LTB4 formation; dose 100 μg ml^−1) was “(100 ± 1) pg ml^−1” and the “inhibition of LTB4 formation” value (LTB4 formation) was “no inhibition was observed”. For the same compound, the “PGE-2 % of control” value (PGE2 production; dose 10 μg ml^−1) was 133%, the PGE-2 (PGE2 production; dose 10 μg ml^−1) was “(56 ± 10) pg ml^−1” and the “PGE-2 % of control” value (PGE2 production; dose 100 μg ml^−1) was 123%. For the same compound, the PGE-2 (PGE2 production; dose 100 μg ml^−1) was “(52 ± 8) pg ml^−1”, the E1/2 [2] was 197 mV and the “oxidation potential Eox” value [2] was 0.622 V. For the same compound, the IC50 [3] was ~50 µM, the “rate constant with superoxide” value [4] was 120000 M⁻¹ s⁻¹ and the “oxidation potential Eox” value ([5]; in acetonitrile, same conditions, vs. NHE) was 1.0 V.

With `CC(=O)Oc1ccccc1C(=O)OC1CC(C)(C)N([O])C(C)(C)C1` [compound (1), TEMPO-aspirin] the “reversibility of cyclic voltammograph” value [5] was “reversible”, the “oxidation potential Eox” value ([5]; in PBS, versus Ag/AgCl) was 0.72 V and the oxidation potential Eox ([5]; in PBS, vs NHE) was 0.83 V.

For `CC1(C)CC(O)CC(C)(C)N1[O]` [TEMPOL], the “oxidation potential Eox” value [2] is listed as 0.810 V, the “tolerance (maximum tolerated dose)” value [6] is listed as 275 mg/kg and the “rate constant with superoxide” value [4] is listed as 65000 M⁻¹ s⁻¹.

With `COc1ccc2c(c1)c(CC(=O)OC1CC(C)(C)N([O])C(C)(C)C1)c(C)n2C(=O)c1ccc(Cl)cc1` [compound (2), TEMPO-indomethacin] the “reversibility of cyclic voltammograph” value [5] was “reversible” and the “oxidation potential Eox” value ([5]; in acetonitrile (100 mM tetrabutylammonium chloride), versus Ag/AgCl) was 1.312 V.

Compound `CC(=O)Oc1ccccc1C(=O)O` [ASA, acetyl salicylic acid] has an MTD at 24 h [1] of 100 mg/kg, an activity at 10 µg/mL (LTB4 formation; dose 10 μg ml^−1) of 64% and an activity at 100 µg/mL (LTB4 formation; dose 100 μg ml^−1) of 62%. For the same compound, the LTB4 (LTB4 formation; dose 10 μg ml^−1) was “(64 ± 13) pg ml^−1”, the LTB4 (LTB4 formation; dose 100 μg ml^−1) was “(62 ± 5) pg ml^−1” and the “inhibition of LTB4 formation” value (LTB4 formation) was “no inhibition was observed”. The activity at 10 µg/mL (PGE2 production; dose 10 μg ml^−1) was 107%, the activity at 100 µg/mL (PGE2 production; dose 100 μg ml^−1) was 23% and the PGE-2 (PGE2 production; dose 10 μg ml^−1) was “(45 ± 7) pg ml^−1”. The PGE-2 (PGE2 production; dose 100 μg ml^−1) was “(10 ± 2) pg ml^−1”.

In the case of `COc1ccc2c(c1)c(CC(=O)O)c(C)n2C(=O)c1ccc(Cl)cc1` [IND, indomethacin], the “Anti-inflammatory ED50” value [7] is reported as 4.2 mg/kg, the MTD at 24 h [1] is reported as 5 mg/kg and the activity at 10 µg/mL (LTB4 formation; dose 10 μg ml^−1) is reported as 100%. For the same compound, the activity at 100 µg/mL (LTB4 formation; dose 100 μg ml^−1) was 82%, the LTB4 (LTB4 formation; dose 10 μg ml^−1) was “(100 ± 10) pg ml^−1” and the LTB4 (LTB4 formation; dose 100 μg ml^−1) was “(82 ± 9) pg ml^−1”. For the same compound, the “inhibition of LTB4 formation” value (LTB4 formation) was “no inhibition was observed”, the activity at 10 µg/mL (PGE2 production; dose 10 μg ml^−1) was 50% and the activity at 100 µg/mL (PGE2 production; dose 100 μg ml^−1) was 12%. For the same compound, the PGE-2 (PGE2 production; dose 10 μg ml^−1) was “(21 ± 3) pg ml^−1” and the PGE-2 (PGE2 production; dose 100 μg ml^−1) was “(5 ± 1) pg ml^−1”.
